Reference: article PMC9503132, “Development of Halogenated-Chalcones Bearing with Dimethoxy Phenyl Head as Monoamine Oxidase-B Inhibitors” (Pharmaceuticals, 2022)
Where two headings read alike, the source gives them in different places.

How the values were obtained:
AChE = AChE (Electrophorus electricus, UniProt O42275); assay: AChE inhibition (colorimetric, acetylthiocholine iodide); type: biochemical; conditions: read-out: Residual activity at 10 µM (%) AChE
Procedure: (§1) The AChE and BChE inhibitory activities were measured by continuous colorimetric determination method, in the presence of 0.5 mM acetylthiocholine iodide (ACTI) and butyrylthiocholine iodide […]
POP, K LAB, Daejeon, Korea). After adding the substrate, 0.5 mM 5,5-dithiobis (2-nitrobenzoic acid) (DTNB) was added as the color development solution. The BACE-1 inhibitory activity was evaluated by β-secretase (BACE1) activity detection kit (Sigma-Aldrich, St. Louis, Mo, USA) using a fluorescence spectrometer (FS-2, Scinco, Seoul, Korea).
64. […] A new and rapid colorimetric determination of acetylcholinesterase activity. Biochem. Pharmacol. 7, 88-95. […]

BACE-1 = target: T1, BACE-1 (Homo sapiens, UniProt P56817); assay: BACE-1 inhibition (β-secretase activity detection kit); type: biochemical; conditions: read-out: Residual activity at 10 µM (%) BACE-1
T1 construct: purchased Sigma-Aldrich
Procedure: as §1
(§2) POP, K LAB, Daejeon, Korea). After adding the substrate, 0.5 mM 5,5-dithiobis (2-nitrobenzoic acid) (DTNB) was added as the color development solution. The BACE-1 inhibitory activity was evaluated by β-secretase (BACE1) activity detection kit (Sigma-Aldrich, St. Louis, Mo, USA) using a fluorescence spectrometer (FS-2, Scinco, Seoul, Korea). […]

MAO-B = target: T2, MAO-B (Homo sapiens, UniProt P27338); assay: MAO-B inhibition assay (recombinant enzyme, benzylamine substrate); type: biochemical; conditions: for SI (selectivity index for MAO-B as compared to MAO-A): IC50 MAO-A divided by IC50 MAO-B; for remaining activity at 10 µM: read-out: Residual Activity at 10 µM (%) MAO-B
T2 construct: purchased Sigma-Aldrich
T2 sequence (P27338 1-520): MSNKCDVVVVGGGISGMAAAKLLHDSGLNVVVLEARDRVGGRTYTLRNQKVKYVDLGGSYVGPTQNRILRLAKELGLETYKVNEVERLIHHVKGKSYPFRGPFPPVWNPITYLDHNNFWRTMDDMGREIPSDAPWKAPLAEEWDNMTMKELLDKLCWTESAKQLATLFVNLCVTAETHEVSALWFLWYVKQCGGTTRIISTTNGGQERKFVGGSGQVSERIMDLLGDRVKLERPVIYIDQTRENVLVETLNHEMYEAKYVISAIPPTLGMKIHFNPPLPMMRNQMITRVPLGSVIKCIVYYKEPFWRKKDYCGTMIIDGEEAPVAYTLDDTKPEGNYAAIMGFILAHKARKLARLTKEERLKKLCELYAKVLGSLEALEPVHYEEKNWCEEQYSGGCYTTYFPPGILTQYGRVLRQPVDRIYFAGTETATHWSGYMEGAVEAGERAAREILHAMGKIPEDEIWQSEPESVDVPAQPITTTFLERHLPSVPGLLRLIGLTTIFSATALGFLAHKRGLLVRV
Procedure: (§3) Recombinant MAO-A and MAO-B were used to test the MAO inhibitory activity using the substrates kynuramine and benzylamine (0.06 mM and 0.3 mM, respectively). […] Chemicals were from Sigma-Aldrich.
(§4) MAO-A At 10 µM, compounds’ inhibitory effects on MAOs were initially recorded. […] The SI values of MAO-B were calculated by dividing the IC50 values for MAO-A and those for MAO-B. The MAO-B was used to study the kinetics of substances DM2 or DM18 at five different substrate concentrations. By using the LB plots and their secondary plots at three different inhibitor doses, the inhibition patterns were examined.

MAO-A = target: T3, MAO-A (Homo sapiens, UniProt P21397); assay: MAO-A inhibition assay (recombinant enzyme, kynuramine substrate); type: biochemical; conditions: for remaining activity at 10 µM: read-out: Residual Activity at 10 µM (%) MAO-A
T3 construct: purchased Sigma-Aldrich
T3 sequence (P21397 1-527): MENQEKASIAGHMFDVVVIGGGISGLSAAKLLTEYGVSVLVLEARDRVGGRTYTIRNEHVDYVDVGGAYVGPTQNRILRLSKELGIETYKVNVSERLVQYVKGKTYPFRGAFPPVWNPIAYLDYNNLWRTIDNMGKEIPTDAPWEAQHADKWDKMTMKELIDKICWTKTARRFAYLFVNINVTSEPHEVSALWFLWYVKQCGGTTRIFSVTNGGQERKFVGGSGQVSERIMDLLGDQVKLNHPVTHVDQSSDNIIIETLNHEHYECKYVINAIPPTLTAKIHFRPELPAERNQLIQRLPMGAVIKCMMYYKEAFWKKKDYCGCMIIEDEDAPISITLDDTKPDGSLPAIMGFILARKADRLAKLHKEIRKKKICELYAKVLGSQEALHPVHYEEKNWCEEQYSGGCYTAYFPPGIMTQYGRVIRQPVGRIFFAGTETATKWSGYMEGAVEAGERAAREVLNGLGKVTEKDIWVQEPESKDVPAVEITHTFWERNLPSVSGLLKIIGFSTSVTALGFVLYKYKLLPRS
Procedure: as §3, §4

BChE = BChE (Equus caballus, UniProt P81908); assay: biochemical; conditions: read-out: Residual activity at 10 µM (%) BChE
Procedure: as §1, §2

[1] = 10 µM compound, recombinant MAO-B, benzylamine 0.3 mM
[2] = recombinant MAO-B, benzylamine 0.3 mM, read-out: IC50 (µM) MAO-B
[3] = 10 µM compound, recombinant MAO-A, kynuramine 0.06 mM
[4] = recombinant MAO-A, kynuramine 0.06 mM, read-out: IC50 (µM) MAO-A

Chain of BChE (P81908 whole entry): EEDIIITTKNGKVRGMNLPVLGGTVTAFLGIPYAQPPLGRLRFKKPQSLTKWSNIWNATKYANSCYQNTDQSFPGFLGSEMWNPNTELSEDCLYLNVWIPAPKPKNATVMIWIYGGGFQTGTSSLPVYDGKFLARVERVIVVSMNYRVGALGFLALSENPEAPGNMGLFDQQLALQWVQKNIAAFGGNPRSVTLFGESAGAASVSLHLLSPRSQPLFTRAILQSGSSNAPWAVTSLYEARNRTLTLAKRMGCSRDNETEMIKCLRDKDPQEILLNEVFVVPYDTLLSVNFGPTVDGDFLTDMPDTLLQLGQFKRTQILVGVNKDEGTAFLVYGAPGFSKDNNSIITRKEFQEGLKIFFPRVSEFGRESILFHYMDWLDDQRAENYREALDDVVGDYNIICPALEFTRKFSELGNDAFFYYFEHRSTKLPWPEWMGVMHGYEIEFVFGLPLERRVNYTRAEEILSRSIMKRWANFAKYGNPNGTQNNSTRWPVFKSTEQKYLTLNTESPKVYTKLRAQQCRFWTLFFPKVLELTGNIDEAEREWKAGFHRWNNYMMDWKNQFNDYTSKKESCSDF
Chain of AChE (O42275 24-633): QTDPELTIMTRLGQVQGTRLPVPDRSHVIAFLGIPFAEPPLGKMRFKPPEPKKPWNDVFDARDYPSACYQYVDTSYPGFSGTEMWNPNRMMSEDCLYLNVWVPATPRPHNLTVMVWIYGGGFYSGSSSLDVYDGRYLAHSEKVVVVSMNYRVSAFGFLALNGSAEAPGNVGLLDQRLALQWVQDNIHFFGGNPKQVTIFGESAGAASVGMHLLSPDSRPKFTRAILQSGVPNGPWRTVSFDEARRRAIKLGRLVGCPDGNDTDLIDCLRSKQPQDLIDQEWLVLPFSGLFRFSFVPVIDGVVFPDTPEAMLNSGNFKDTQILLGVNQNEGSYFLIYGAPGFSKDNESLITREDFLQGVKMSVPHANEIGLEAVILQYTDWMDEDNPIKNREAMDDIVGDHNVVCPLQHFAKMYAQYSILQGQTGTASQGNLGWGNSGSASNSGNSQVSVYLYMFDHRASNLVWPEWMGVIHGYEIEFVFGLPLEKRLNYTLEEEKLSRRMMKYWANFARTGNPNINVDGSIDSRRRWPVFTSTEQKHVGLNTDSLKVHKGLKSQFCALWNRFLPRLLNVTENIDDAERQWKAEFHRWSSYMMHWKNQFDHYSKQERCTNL
T1 sequence (P56817 46-501): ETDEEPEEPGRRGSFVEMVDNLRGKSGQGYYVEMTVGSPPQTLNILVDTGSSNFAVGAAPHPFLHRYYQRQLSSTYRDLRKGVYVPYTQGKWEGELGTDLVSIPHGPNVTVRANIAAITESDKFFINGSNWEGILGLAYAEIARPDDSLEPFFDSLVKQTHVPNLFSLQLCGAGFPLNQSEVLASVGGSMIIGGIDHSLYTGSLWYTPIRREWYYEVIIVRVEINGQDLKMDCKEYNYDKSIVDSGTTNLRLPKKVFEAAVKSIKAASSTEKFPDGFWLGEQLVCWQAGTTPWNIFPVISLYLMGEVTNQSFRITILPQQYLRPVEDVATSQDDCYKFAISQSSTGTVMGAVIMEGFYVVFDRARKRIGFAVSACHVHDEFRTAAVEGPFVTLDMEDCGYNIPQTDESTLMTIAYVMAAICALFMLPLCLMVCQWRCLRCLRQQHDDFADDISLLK

SMILES | remaining activity at 10 µM (AChE) | remaining activity at 10 µM (BACE-1) | IC50 (MAO-B) | SI (selectivity index for MAO-B as compared to MAO-A) (MAO-B) | remaining activity at 10 µM (MAO-B) | IC50 (MAO-A) | remaining activity at 10 µM (MAO-A) | remaining activity at 10 µM (BChE) | remaining activity at 10 µM (BACE-1; 10 µM compound) | remaining activity at 10 µM (MAO-B; [1]) | IC50 (MAO-B; [2]) | remaining activity at 10 µM (MAO-A; [3]) | IC50 (MAO-A; [4])
COc1ccc(C(=O)/C=C/c2ccccc2)c(OC)c1 [DM1] | 75.6 ± 2.35% | 92.67 ± 0.26% | 0.927 ± 0.021 µM | 16.61 | 17.6 ± 0.74% | 15.4 ± 1.97 µM | 57.2 ± 1.91% | 93.21 ± 0.3% | – | – | – | – | –
COc1ccc(C(=O)/C=C/c2cccc(Cl)c2)c(OC)c1 [DM3] | 81.5 ± 4.09% | – | – | 44.08 | – | – | – | 69.87 ± 0.19% | 99.67 ± 0.53% | 7.89 ± 0.63% | 0.13 ± 0.023 µM | 43.3 ± 1.2% | 5.73 ± 0.142 µM
COc1ccc(C(=O)/C=C/c2ccc(Cl)cc2)c(OC)c1 [DM4] | 74.2 ± 2.43% | 90.82 ± 0.09% | 0.589 ± 0.055 µM | 7.61 | 18.6 ± 1.04% | 4.48 ± 0.152 µM | 38.8 ± 3.4% | 80.1 ± 1.59% | – | – | – | – | –
COc1ccc(C(=O)/C=C/c2ccccc2Br)c(OC)c1 [DM5] | 71.2 ± 6.12% | – | – | 77.02 | – | – | – | 60.54 ± 0.03% | 87.8 ± 0.29% | 10.6 ± 1.88% | 0.161 ± 0.02 µM | 54.5 ± 4.32% | 12.4 ± 0.872 µM
COc1ccc(C(=O)/C=C/c2cccc(Br)c2)c(OC)c1 [DM6] | 73 ± 0.75% | – | – | 86.49 | – | – | – | 79.7 ± 1.1% | 88.53 ± 0.22% | 5.5 ± 0.64% | 0.148 ± 0.087 µM | 62.7 ± 1.32% | 12.8 ± 1.57 µM
COc1ccc(C(=O)/C=C/c2ccc(Br)cc2)c(OC)c1 [DM7] | 87.2 ± 1.19% | – | – | 5.60 | – | – | – | 98.2 ± 1.01% | 97.29 ± 0.34% | 15.6 ± 1.78% | 0.844 ± 0.023 µM | 40.3 ± 1.05% | 4.733 ± 0.005 µM
COc1ccc(C(=O)/C=C/c2ccccc2F)c(OC)c1 [DM8] | 82.7 ± 10.4% | – | – | 11.90 | – | – | – | 85.42 ± 0.67% | 91.01 ± 0.06% | 11.1 ± 1.44% | 1.13 ± 0.033 µM | 56.4 ± 7.34% | 13.4 ± 0.82 µM
COc1ccc(C(=O)/C=C/c2cccc(F)c2)c(OC)c1 [DM9] | 71.9 ± 3.06% | – | – | 45.93 | – | – | – | 72.5 ± 3.69% | 88.2 ± 0.28% | 10.8 ± 0.23% | 0.246 ± 0.074 µM | 50.6 ± 0.82% | 11.3 ± 1.06 µM
COc1ccc(C(=O)/C=C/c2ccc(F)cc2)c(OC)c1 [DM10] | 64.3 ± 6.85% | – | – | 8.14 | – | – | – | 92.84 ± 0.51% | 87.13 ± 0.42% | 23.2 ± 0.37% | 1.96 ± 0.065 µM | 53.9 ± 7.17% | 16 ± 1.47 µM
COc1ccc(C(=O)/C=C/c2ccccc2)cc1OC [DM11] | 80.3 ± 5.21% | – | – | 6.54 | – | – | – | 80.5 ± 1.36% | 97.5 ± 1.02% | 14.6 ± 3.48% | 2.19 ± 0.098 µM | 64.6 ± 0.72% | 14.3 ± 1.83 µM
COc1ccc(C(=O)/C=C/c2ccccc2Cl)cc1OC [DM12] | 68.5 ± 2.87% | – | – | >32.65 | – | – | – | 63.5 ± 1.47% | 94.3 ± 1.06% | 8.98 ± 0.92% | 1.23 ± 0.25 µM | 88.7 ± 9.4% | > 40 µM
COc1ccc(C(=O)/C=C/c2cccc(Cl)c2)cc1OC [DM13] | 95 ± 3.4% | – | – | >8.51 | – | – | – | 100 ± 7.32% | 99.86 ± 0.28% | 7.49 ± 0.12% | 4.7 ± 0.32 µM | 75.6 ± 0.88% | > 40 µM
COc1ccc(C(=O)/C=C/c2ccc(Cl)cc2)cc1OC [DM14] | 97.6 ± 3.42% | – | – | >48.02 | – | – | – | 76.5 ± 1.37% | 99.83 ± 0.81% | 9.45 ± 2.88% | 0.833 ± 0.087 µM | 98.8 ± 1.77% | > 40 µM
COc1ccc(C(=O)/C=C/c2ccccc2Br)cc1OC [DM15] | 83.9 ± 4.91% | – | – | >55.87 | – | – | – | 55.2 ± 1.01% | 99.54 ± 0.24% | 10.2 ± 0.17% | 0.716 ± 0.056 µM | 77.5 ± 7.07% | > 40 µM
COc1ccc(C(=O)/C=C/c2cccc(Br)c2)cc1OC [DM16] | 82.7 ± 9.21% | – | – | >35.94 | – | – | – | 91.2 ± 1.43% | 99.74 ± 0.04% | 11.8 ± 5.27% | 1.11 ± 0.26 µM | 76.9 ± 0.88% | > 40 µM
